Reference: patent US12060385B2, “Compounds for RNA capping and uses thereof” (GUANGZHOU HENOVCOM BIOSCIENCE CO., LTD., priority 2022, dated 2024)

Molecular target: T7 RNA Polymerase (Escherichia phage T7, UniProt P00573)
Assay type: biochemical
Conditions: 20 μL transcription system, Cap1 Analog 4 mM, 37° C. 2 to 3 hours
Experimental: • 1) A plasmid was linearized and the DNA template was purified. • 2) mRNA was synthesized in vitro with 51 types of capping structures of the present disclosure, or without any cap analogues. CleanCap®AG (3′OMe) (Trilink, N-7413) was applied as positive control group, uncapped mRNA was negative control group, and DNAase/RNase-Free water was a blank control group.
The system was incubated for 2 to 3 hours at 37° C. and digested by TURBO DNase for 15 min LiCl was used to precipitate mRNA for at least 30 min, or overnight, mRNA precipitates were then washed with 75% ethanol. After ethanol was quickly volatilized, mRNA was re-solubilized with RNase-Free water. • 3) The transcribed products were purified and the transcription yields were calculated.

T7 RNA Polymerase, sequence (P00573 whole entry): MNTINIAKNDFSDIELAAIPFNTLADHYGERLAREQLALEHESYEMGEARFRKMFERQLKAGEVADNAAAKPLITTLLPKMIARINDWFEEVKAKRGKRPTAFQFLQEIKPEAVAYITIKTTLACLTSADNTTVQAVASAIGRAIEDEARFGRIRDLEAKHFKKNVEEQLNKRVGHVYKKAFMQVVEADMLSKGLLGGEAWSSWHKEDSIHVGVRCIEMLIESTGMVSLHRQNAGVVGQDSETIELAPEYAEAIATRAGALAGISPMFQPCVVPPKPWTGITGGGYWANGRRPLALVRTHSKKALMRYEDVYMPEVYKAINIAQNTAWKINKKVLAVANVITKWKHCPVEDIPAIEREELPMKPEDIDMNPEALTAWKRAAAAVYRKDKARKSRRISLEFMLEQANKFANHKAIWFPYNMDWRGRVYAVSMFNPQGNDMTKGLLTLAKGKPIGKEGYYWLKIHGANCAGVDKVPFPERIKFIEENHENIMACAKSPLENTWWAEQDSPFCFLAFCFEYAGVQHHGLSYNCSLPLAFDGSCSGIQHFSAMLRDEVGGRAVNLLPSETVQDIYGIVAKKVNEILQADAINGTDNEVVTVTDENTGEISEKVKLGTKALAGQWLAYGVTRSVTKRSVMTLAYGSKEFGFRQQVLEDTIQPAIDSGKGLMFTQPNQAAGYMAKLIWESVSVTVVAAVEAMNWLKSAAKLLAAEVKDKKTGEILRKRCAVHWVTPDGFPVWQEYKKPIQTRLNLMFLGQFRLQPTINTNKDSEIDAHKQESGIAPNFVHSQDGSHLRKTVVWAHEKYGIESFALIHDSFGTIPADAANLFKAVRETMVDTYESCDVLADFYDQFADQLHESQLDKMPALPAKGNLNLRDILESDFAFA

Structure (SMILES) | Final product mass obtained from the 20 μL of mRNA transcription system [µg]
CO[C@@H]1[C@H](OP(=O)(O)OC[C@H]2O[C@@H](n3cnc4c(=O)[nH]c(N)nc43)[C@H](O)[C@@H]2O)[C@@H](COP(=O)(O)OP(=O)(O)OP(=O)(O)OC[C@H]2O[C@@H](n3c[n+](C)c4c(=O)[nH]c(N)nc43)[C@H](O)[C@@H]2CNC(=O)N(C)C)O[C@H]1n1cnc2c(N)ncnc21 [Compound 639] | 94
CNC(=O)CC[C@H]1[C@@H](O)[C@H](n2c[n+](C)c3c(=O)[nH]c(N)nc32)O[C@@H]1COP(=O)(O)OP(=O)(O)OP(=O)(O)OC[C@H]1O[C@@H](n2cnc3c(N)ncnc32)[C@H](OC)[C@@H]1OP(=O)(O)OC[C@H]1O[C@@H](n2cnc3c(=O)[nH]c(N)nc32)[C@H](O)[C@@H]1O [Compound 415] | 108
C=CCOC[C@H]1[C@@H](O)[C@H](n2c[n+](C)c3c(=O)[nH]c(N)nc32)O[C@@H]1COP(=O)(O)OP(=O)(O)OP(=O)(O)OC[C@H]1O[C@@H](n2cnc3c(N)ncnc32)[C@H](OC)[C@@H]1OP(=O)(O)OC[C@H]1O[C@@H](n2cnc3c(=O)[nH]c(N)nc32)[C@H](O)[C@@H]1O [Compound 33] | 103
CO[C@@H]1[C@H](OP(=O)(O)OC[C@H]2O[C@@H](n3cnc4c(=O)[nH]c(N)nc43)[C@H](O)[C@@H]2O)[C@@H](COP(=O)(O)OP(=O)(O)OP(=O)(O)OC[C@H]2O[C@@H](n3c[n+](C)c4c(=O)[nH]c(N)nc43)[C@H](O)[C@@H]2CCNC(C)=O)O[C@H]1n1cnc2c(N)ncnc21 [Compound 319] | 102
CO[C@@H]1[C@H](OP(=O)([O-])OC[C@H]2O[C@@H](n3cnc4c(=O)[nH]c(N)nc43)[C@H](O)[C@@H]2O)[C@@H](COP(=O)(O)OP(=O)(O)OP(=O)(O)OC[C@H]2O[C@@H](n3c[n+](C)c4c(=O)[nH]c(N)nc43)[C@H](O)[C@@H]2CNC(=O)c2ccccc2)O[C@H]1n1cnc2c(N)ncnc21 [Compound 309] | 112
CCCCOC[C@H]1[C@@H](O)[C@H](n2c[n+](C)c3c(=O)[nH]c(N)nc32)O[C@@H]1COP(=O)(O)OP(=O)(O)OP(=O)(O)OC[C@H]1O[C@@H](n2cnc3c(N)ncnc32)[C@H](OC)[C@@H]1OP(=O)(O)OC[C@H]1O[C@@H](n2cnc3c(=O)[nH]c(N)nc32)[C@H](O)[C@@H]1O [Compound 151] | 110
COC[C@H]1[C@@H](O)[C@H](n2c[n+](C)c3c(=O)[nH]c(NC(C)C)nc32)O[C@@H]1COP(=O)(O)OP(=O)(O)OP(=O)(O)OC[C@H]1O[C@@H](n2cnc3c(N)ncnc32)[C@H](OC)[C@@H]1OP(=O)([O-])OC[C@H]1O[C@@H](n2cnc3c(=O)[nH]c(N)nc32)[C@H](O)[C@@H]1O [Compound 219] | 101
CCCCCCNC(=O)C[C@H]1[C@@H](O)[C@H](n2c[n+](C)c3c(=O)[nH]c(N)nc32)O[C@@H]1COP(=O)(O)OP(=O)(O)OP(=O)(O)OC[C@H]1O[C@@H](n2cnc3c(N)ncnc32)[C@H](OC)[C@@H]1OP(=O)([O-])OC[C@H]1O[C@@H](n2cnc3c(=O)[nH]c(N)nc32)[C@H](O)[C@@H]1O [Compound 643] | 121
CNC(=O)OC[C@H]1[C@@H](O)[C@H](n2c[n+](C)c3c(=O)[nH]c(N)nc32)O[C@@H]1COP(=O)(O)OP(=O)(O)OP(=O)(O)OC[C@H]1O[C@@H](n2cnc3c(N)ncnc32)[C@H](OC)[C@@H]1OP(=O)([O-])OC[C@H]1O[C@@H](n2cnc3c(=O)[nH]c(N)nc32)[C@H](O)[C@@H]1O [Compound 631] | 105
CO[C@@H]1[C@H](OP(=O)([O-])OC[C@H]2O[C@@H](n3cnc4c(=O)[nH]c(N)nc43)[C@H](O)[C@@H]2O)[C@@H](COP(=O)(O)OP(=O)(O)OP(=O)(O)OC[C@H]2O[C@@H](n3c[n+](C)c4c(=O)[nH]c(N)nc43)[C@H](O)[C@@H]2CNS(C)(=O)=O)O[C@H]1n1cnc2c(N)ncnc21 [Compound 311] | 88
CNc1ncnc2c1ncn2[C@@H]1O[C@H](COP(=O)(O)OP(=O)(O)OP(=O)(O)OC[C@H]2O[C@@H](n3c[n+](C)c4c(=O)[nH]c(N)nc43)[C@H](O)[C@@H]2COC)[C@@H](OP(=O)([O-])OC[C@H]2O[C@@H](n3cnc4c(=O)[nH]c(N)nc43)[C@H](O)[C@@H]2O)[C@H]1OC [Compound 197] | 121
COC[C@H]1[C@@H](O)[C@H](n2c[n+](C)c3c(=O)[nH]c(N)nc32)O[C@@H]1COP(=O)(O)OP(=O)(O)OP(=O)(O)OC[C@H]1O[C@@H](n2cnc3c(N)ncnc32)[C@H](OC)[C@@H]1OCOC[C@H]1O[C@@H](n2cnc3c(=O)[nH]c(N)nc32)[C@H](O)[C@@H]1O [Compound 199] | 95
COCC[C@H]1[C@@H](O)[C@H](n2c[n+](C)c3c(=O)[nH]c(N)nc32)O[C@@H]1COP(=O)(O)OP(=O)(O)OP(=O)(O)OC[C@H]1O[C@@H](n2cnc3c(N)ncnc32)[C@H](OC)[C@@H]1OP(=O)([O-])OC[C@H]1O[C@@H](n2cnc3c(=O)[nH]c(N)nc32)[C@H](O)[C@@H]1O [Compound 5] | 95
CNC(=O)C[C@H]1[C@@H](OC)[C@H](n2c[n+](C)c3c(=O)[nH]c(N)nc32)O[C@@H]1COP(=O)(O)OP(=O)(O)OP(=O)(O)OC[C@H]1O[C@@H](n2cnc3c(N)ncnc32)[C@H](OC)[C@@H]1OP(=O)(O)OC[C@H]1O[C@@H](n2cnc3c(=O)[nH]c(N)nc32)[C@H](O)[C@@H]1O [Compound 645] | 116
CO[C@@H]1[C@H](OP(=O)([O-])OC[C@H]2O[C@@H](n3ccc(=O)[nH]c3=O)[C@H](O)[C@@H]2O)[C@@H](COP(=O)(O)OP(=O)(O)OP(=O)(O)OC[C@H]2OC(n3c[n+](C)c4c(=O)[nH]c(N)nc43)[C@H](O)[C@@H]2CNC(C)=O)O[C@H]1n1cnc2c(N)ncnc21 (stereo partly drawn) [Compound 118] | 86
COC[C@H]1[C@@H](O)[C@H](n2c[n+](Cc3ccccc3)c3c(=O)[nH]c(N)nc32)O[C@@H]1COP(=O)(O)OP(=O)(O)OP(=O)(O)OC[C@H]1O[C@@H](n2cnc3c(N)ncnc32)[C@H](OC)[C@@H]1OP(=O)([O-])OC[C@H]1O[C@@H](n2cnc3c(=O)[nH]c(N)nc32)[C@H](O)[C@@H]1O [Compound 215] | 95
COC[C@H]1[C@@H](O)[C@H](n2c[n+](C)c3c(=O)[nH]c(N)nc32)O[C@@H]1COP(=O)(O)OP(=O)(O)OP(=O)(O)OP(=O)(O)OC[C@H]1O[C@@H](n2cnc3c(N)ncnc32)[C@H](OC)[C@@H]1OP(=O)(O)OC[C@H]1O[C@@H](n2cnc3c(=O)[nH]c(N)nc32)[C@H](O)[C@@H]1O [Compound 189] | 92
CCCCC(=O)NC[C@H]1[C@@H](O)[C@H](n2c[n+](C)c3c(=O)[nH]c(N)nc32)O[C@@H]1COP(=O)(O)OP(=O)(O)OP(=O)(O)OC[C@H]1O[C@@H](n2cnc3c(N)ncnc32)[C@H](OC)[C@@H]1OP(=O)(O)OC[C@H]1O[C@@H](n2cnc3c(=O)[nH]c(N)nc32)[C@H](O)[C@@H]1O [Compound 305] | 92
CO[C@@H]1[C@H](OP(=O)([O-])OC[C@H]2O[C@@H](n3cnc4c(=O)[nH]c(N)nc43)[C@H](O)[C@@H]2O)[C@@H](COP(=O)(O)OP(=O)(O)OP(=O)(O)OC[C@H]2O[C@@H](n3c[n+](C)c4c(=O)[nH]c(N)nc43)[C@H](O)[C@@H]2CNC=O)O[C@H]1n1cnc2c(N)ncnc21 [Compound 299] | 105
CO[C@@H]1[C@H](CNC(C)=O)[C@@H](COP(=O)(O)OP(=O)(O)OP(=O)(O)OC[C@H]2O[C@@H](n3cnc4c(N)ncnc43)[C@H](OC)[C@@H]2OP(=O)(O)OC[C@H]2O[C@@H](n3cnc4c(=O)[nH]c(N)nc43)[C@H](O)[C@@H]2O)O[C@H]1n1c[n+](C)c2c(=O)[nH]c(N)nc21 [Compound 641] | 89
CNC(=O)C[C@H]1[C@@H](O)[C@H](n2c[n+](C)c3c(=O)[nH]c(N)nc32)O[C@@H]1COP(=O)(O)OP(=O)(O)OP(=O)(O)OC[C@H]1O[C@@H](n2cnc3c(N)ncnc32)[C@H](OC)[C@@H]1OP(=O)(O)OC[C@H]1O[C@@H](n2ccc(=O)[nH]c2=O)[C@H](O)[C@@H]1O [Compound 394] | 107
CCO[C@@H]1[C@H](OP(=O)(O)OC[C@H]2O[C@@H](n3cnc4c(=O)[nH]c(N)nc43)[C@H](O)[C@@H]2O)[C@@H](COP(=O)(O)OP(=O)(O)OP(=O)(O)OCC2O[C@@H](n3c[n+](C)c4c(=O)[nH]c(N)nc43)[C@H](O)[C@@H]2COC)O[C@H]1n1cnc2c(N)ncnc21 (stereo partly drawn) [Compound 203] | 96
COC(=O)NC[C@H]1[C@@H](O)[C@H](n2c[n+](C)c3c(=O)[nH]c(N)nc32)O[C@@H]1COP(=O)(O)OP(=O)(O)OP(=O)(O)OC[C@H]1O[C@@H](n2cnc3c(N)ncnc32)[C@H](OC)[C@@H]1OP(=O)(O)OC[C@H]1O[C@@H](n2cnc3c(=O)[nH]c(N)nc32)[C@H](O)[C@@H]1O [Compound 323] | 114
COC[C@H]1[C@@H](OC)[C@H](n2c[n+](C)c3c(=O)[nH]c(N)nc32)O[C@@H]1COP(=O)(O)OP(=O)(O)OP(=O)(O)OC[C@H]1O[C@@H](n2cnc3c(N)ncnc32)[C@H](OC)[C@@H]1OP(=O)(O)OC[C@H]1O[C@@H](n2cnc3c(=O)[nH]c(N)nc32)[C@H](O)[C@@H]1O [Compound 637] | 88
